Test results published in US6331555A, “Treatment of platelet derived growth factor related disorders such as cancers” (priority 1999, dated 2001).
Where two headings read alike, the source gives them in different places.

What was measured:
SKOV3T cells = assay: Survival, IP SKOV3T xenograft in BALB/c nu/nu mice; assay type: in vivo, human; details: 15 mg/kg/day IP in DMSO
Method: Cell lines were grown in the appropriate media as described in Appendix 1. Cells were harvested and washed in sterile PBS or medium without FBS, resuspended to a suitable concentration, and injected into the IP cavity of […] of the appropriate strain. Prior to implantation of 7TD1 cells, C57BL/6 mice were primed by IP injection of 0.5 mL Pristane. SKOV3T cells were implanted into athymic mice without Pristane priming. Mice were observed daily for the occurrence of ascites formation. Individual animals were sacrificed when they presented with a weight gain of 40%, or when the IP tumor burden began to cause undue stress and pain to the animal.
In one experiment, SKOV3T cells (2×10^6 cells) were implanted into the IP cavity of BALB/c, nu/nu mice.

C6 cells = assay: Intracerebral C6 tumor, athymic rats, survival; assay type: in vivo, rat; details: IC C6, athymic rats
Method: FIG. 5. In two separate experiments, C6 cells (5×10^4 cells in 20 μL [Expt #1] or 5 μL [Expt #2]) were implanted into the cerebrum of athymic rats. […] V=vehicle control. n=7 to 8 animals per group. * P=0.0002; ** P=0.0003 compared to vehicle control.
For the rat IC model, rats (Wistar, Sprague Dawley, Fisher 344, or athymic R/Nu; approximately 200 g) were anesthetized by an IP injection of 100 mg/kg Ketaset (ketamine hydrochloride; Aveco, Fort Dodge, Iowa) and 5 mg/kg Rompun (xylazine, 2% solution; Bayer, Germany). After onset of anesthesia, the scalp was shaved and the animal was oriented in a stereotaxic apparatus (Stoelting, Wood Dale, Ill.). The skin at the incision site was cleaned 3 times with alternating swabs of 70% ethanol and 10% Povidone-Iodine. A median 1.0-1.5 cm incision was made in the scalp using a sterile surgical blade. The skin was detached slightly and pulled to the sides to expose the sutures on the skull surface. A dental drill (Stoelting, Wood Dale, Ill.) was used to make a small (1-2 mm diameter) burrhole in the skull approximately 1 mm anterior and 2 mm lateral to the bregma. The cell suspension was drawn into a 50 μL Hamilton syringe fitted with a 23 or 25 ga standard bevel needle. […]

RR-SRC peptide substrate = details: cited from earlier work
PC3 = assay: Tumor cell line growth; assay type: cell-based; details: Homo sapiens, PC-3, 96 h; prostate, 4 days
Method: (§1) The assay measures protein content of acid-fixed cells using the counterion binding dye sulforhodamine B (SRB, Sigma). […] For other cell lines, the cells (2000 cells/well in 100 μL) were introduced into wells immediately after dispensing the drug solutions. After 4 days (37° C., 5% CO2) the monolayers were washed 3 times with PBS and fixed with 200 μL ice-cold 10% TCA (Fisher Scientific), and kept at 4° C. for 60 min. The TCA was removed and the fixed monolayers were washed 5 times with tap water and allowed to dry completely at room temperature on absorbent paper. The cellular protein was stained for 10 min with 100 μL 0.4% SRB dissolved in 1% acetic acid. After 5 washes with tap water, the dye was solubilized in 10 mM Tris base (100 μL per well) and absorbance read at 570 nm on a Dynatech plate reader model MR5000. Growth inhibition data are expressed as a percentage of absorbance detected in control wells which were treated with 0.4% DMSO alone. DMSO controls were not different from cells grown in regular growth medium. IC50 values were determined using a four parameter curve fit function.
(§2) For K562, DlB, L1210, 7TDl, T27A, and Colo320 DM cells, an MTT assay was used to assess cell growth. […] The cells were incubated at 37° C. for 4 days in a humidified 7% CO2 atmosphere. At the end point, […] of MTT (5 mg/mL in PBS, Sigma) was added to each well. The plates were incubated at 37° C. for 4 hr followed by addition of […] of solubilization solution (20% w/v of SDS in 50% N, N-dimethylformamide, pH 4.7) to each well. The plates were incubated overnight in a sealed container with a humidified atmosphere. The absorbance was determined at 570 nm wavelength with a reference wavelength of 630 nm using an ELISA plate reader.

K562 = assay: Tumor cell line growth; assay type: cell-based; details: Homo sapiens, K562, 96 h; leukemia, 4 days
Method: as §1, §2

SKBR3 = assay: Tumor cell line growth; assay type: cell-based; details: Homo sapiens, SK-BR-3, 96 h; breast, 4 days
Method: as §1, §2

ZR75-30 = assay: Tumor cell line growth; assay type: cell-based; details: Homo sapiens, ZR-75-30, 96 h; breast, 4 days
Method: as §1, §2

BT549 = assay: Tumor cell line growth; assay type: cell-based; details: Homo sapiens, BT-549, 96 h; breast, 4 days
Method: as §1, §2

MCF7/HER2 = assay: Tumor cell line growth; assay type: cell-based; details: Homo sapiens, MCF7, 96 h; breast, 4 days
Method: as §1, §2

U87MG = assay: Tumor cell line growth; assay type: cell-based; details: Homo sapiens, U-87 MG, 96 h; glioma, 4 days
Method: as §1, §2

SKOV3 = assay: Tumor cell line growth; assay type: cell-based; details: Homo sapiens
Method: as §1, §2

ZR 75-1 = assay: Tumor cell line growth; assay type: cell-based; details: Homo sapiens, ZR-75-1, 96 h; breast, 4 days
Method: as §1, §2

MCF7 = assay: Tumor cell line growth; assay type: cell-based; details: Homo sapiens, MCF7, 96 h; breast, 4 days
Method: as §1, §2

C81-61 = assay: Tumor cell line growth; assay type: cell-based; details: Homo sapiens, C8161, 96 h; melanoma, 4 days
Method: as §1, §2

9L glioma = assay: SC xenograft in mice; assay type: in vivo, rat; details: nu/nu, 20 mg/kg/day, day 20
Method: Cell lines were grown in appropriate medium (see Appendix 1). Cells were harvested at or near confluency with 0.05% Trypsin-EDTA and pelleted at 450×g for 10 min. Pellets were resuspended in sterile PBS or media (without FBS) to a particular concentration and the cells were implanted into the hindflank of mice. Tumor growth was measured over 3 to 6 weeks using venier calipers. Tumor volumes were calculated as a product of length×width×height unless otherwise indicated. P values were calculated using the Students' t-test.

Cc1oncc1C(=O)Nc1ccc(C(F)(F)F)cc1 [Compound A10, 5-methylisoxazole-4 carboxylic acid-(4-trifluromethyl)-anilide]
survival (SKOV3T cells): significantly increase the survival | animals alive (SKOV3T cells; after 32 days): 40% | animals died (SKOV3T cells; by 28 days): one of A10 treated animals died by 28 days | survival (C6 cells): slight but significant positive effect on the survival | tyrosine phosphorylation of the RR-SRC peptide substrate (RR-SRC peptide substrate): dose dependently, inhibited | IC50 (PC3): 46 µM | IC50 (K562): 26 µM | IC50 (SKBR3): > 400 µM | IC50 (ZR75-30): 300 µM | IC50 (BT549): > 400 µM | IC50 (MCF7/HER2): 116 µM | IC50 (U87MG): 78 µM | IC50 (SKOV3; SK-OV-3, 96 h, ovarian, 4 days, read-out: IC50): > 100 µM | IC50 (SKOV3; SK-OV-3, PDGF-R expression -, read-out: SRB): > 100 µM | IC50 (ZR 75-1): 355 µM | IC50 (MCF7): 288 µM | IC50 (C81-61): 40 µM | % Inhibition (9L glioma): 83%
